Laboratory results published in US10993983B2, “Cyclic peptide epitopes and small-molecule mimics for inducing autophagy” (TRUSTEES OF TUFTS COLLEGE, priority 2016, dated 2021).
Marks after values point to notes of the source that are not given here. Bridges are numbered along the chain shown (N, C = ends). Where no end group is shown, it is not given here. [ ]: non-standard residue; d: D form. MP = not defined here

What was measured:
LC3 = LC3 marker assay (LC3-I to LC3-II conversion immunoblot);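 on Activity (μM) 10, LC3 assay activity: HeLa cells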;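 on Activity (μM) 100, LC3 assay activity: HeLa cells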;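 on Activity (μM) 20, LC3 assay activity: HeLa cells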;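 on Activity (μM) 30, LC3 assay activity: HeLa cells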;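 on Activity (μM) 50, LC3 assay activity: HeLa cells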; assay type: cell-based; parameters: key: −: activity not reported; 0: decreased vs. WT; +: similar to WT; ++: modest increase vs. WT; +++: significant increase vs. WT; conditions: for Activity (μM) 50, LC3 assay activity: 50 μM; for Activity (μM) 100, LC3 assay activity: 100 μM; for Activity (μM) 10, LC3 assay activity: 10 μM; for Activity (μM) 20, LC3 assay activity: 20 μM; for Activity (μM) 30, LC3 assay activity: 30 μM; for Activity (μM) 10, starred cell, LC3 assay activity: Table 8, 10 μM marked * (footnote: data taken at 20 instead of 30 μM)
Method: (§1) Cells were treated with peptide in OPTI-MEM (Thermo Scientific) acidified with 0.15% (v/v) 6N HCl for 3 hour. Cells were rinsed with Dulbecco's phosphate buffered saline (PBS) and lysed in lysis buffer (20 mM HEPES, 150 mM NaCl, 1 mM EDTA, 1% Triton X-100, protease inhibitor cocktail (Roche) on ice for 1 hour. Cell lysates were centrifuged at 16,000 g for 10 min at 4° C. and analyzed by SDS-PAGE and transferred to PVDF membranes. The membranes were blocked 5% non-fat dry milk (NFDM) in PBST (PBS+0.05% Tween-20) for 1 hour, then incubated overnight at 4° C. with primary antibody in 5% NFDM in PBST. The blots were washed with PBST and incubated with HRP-conjugated secondary antibodies diluted in 5% NFDM in PBST for 1 hour at room temperature. Membranes were washed with PBST and visualized with SuperSignal West Pico Chemiluminescent Substrate (Thermo Scientific). Semi-quantitative results were obtained by noting the lowest concentration at which both p62 degradation and LC3-I to LC3-II conversion were observed.
(§2) Compounds 1-10 were evaluated using the assays described in Examples 4 and 5. Activity for each compound was measured in the p62 degradation assay and the LC3 marker assay as described herein. The activity at each concentration of peptide is given as, for example, (0/+) where 0 would be the p62/actin assay activity and + would be the LC3 assay activity.

p62 = p62 degradation assay (p62/actin immunoblot);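 on Activity (μM) 10, p62/actin assay activity: HeLa cells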;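 on Activity (μM) 100, p62/actin assay activity: HeLa cells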;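 on Activity (μM) 20, p62/actin assay activity: HeLa cells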;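 on Activity (μM) 30, p62/actin assay activity: HeLa cells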;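 on Activity (μM) 50, p62/actin assay activity: HeLa cells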; assay type: cell-based; parameters: key: −: activity not reported; 0: decreased vs. WT; +: similar to WT; ++: modest increase vs. WT; +++: significant increase vs. WT; conditions: for Activity (μM) 50, p62/actin assay activity: 50 μM; for Activity (μM) 100, p62/actin assay activity: 100 μM; for Activity (μM) 10, p62/actin assay activity: 10 μM; for Activity (μM) 20, p62/actin assay activity: 20 μM; for Activity (μM) 30, p62/actin assay activity: 30 μM; for Activity (μM) 10, starred cell, p62/actin assay activity: Table 8, 10 μM marked * (footnote: data taken at 20 instead of 30 μM)
Method: as §1, §2

[1] = Table 8, control compound T25, second symbol
[2] = Table 8, control compound T25, first symbol
[3] = Table 3, control vehicle, second symbol of cell
[4] = Table 3, control vehicle, second symbol
[5] = Table 7, control compound T25, second symbol
[6] = Table 3, control vehicle, first symbol of cell
[7] = Table 3, control vehicle, first symbol
[8] = Table 7, control compound T25, first symbol
[9] = Table 6, control DMSO, second symbol
[10] = Table 6, control DMSO, first symbol

RCNARCRIWR (H-R[dC]NAR[dC]RIWR; not fully specified (C-terminus); cysteine pairing not given here) [Compound 40]
Activity (μM) 50, LC3 assay activity (LC3; [1]): 0/0 | Activity (μM) 100, LC3 assay activity (LC3; [1]): 0/0 | Activity (μM) 50, p62/actin assay activity (p62; [2]): 0/0 | Activity (μM) 100, p62/actin assay activity (p62; [2]): 0/0

VCNACFHIWH [Compound 4]
Activity (μM) 10, LC3 assay activity (LC3; [3]): 0/0 | Activity (μM) 20, LC3 assay activity (LC3; [4]): 0/0 | Activity (μM) 30, LC3 assay activity (LC3; [5]): 0/0 | Activity (μM) 50, LC3 assay activity (LC3; [4]): 0/0 | Activity (μM) 50, LC3 assay activity (LC3; [5]): ++/++ | Activity (μM) 100, LC3 assay activity (LC3; [4]): + | Activity (μM) 100, LC3 assay activity (LC3; [5]): +++/+++ | Activity (μM) 10, p62/actin assay activity (p62; [6]): 0/0 | Activity (μM) 20, p62/actin assay activity (p62; [7]): 0/0 | Activity (μM) 30, p62/actin assay activity (p62; [8]): 0/0 | Activity (μM) 50, p62/actin assay activity (p62; [7]): 0/0 | Activity (μM) 50, p62/actin assay activity (p62; [8]): ++/++ | Activity (μM) 100, p62/actin assay activity (p62; [7]): +++ | Activity (μM) 100, p62/actin assay activity (p62; [8]): +++/+++

VCNACFHIWH [Compound 9]
Activity (μM) 10, LC3 assay activity (LC3; [3]): 0/0 | Activity (μM) 20, LC3 assay activity (LC3; [4]): 0/0 | Activity (μM) 50, LC3 assay activity (LC3; [4]): 0/0 | Activity (μM) 10, p62/actin assay activity (p62; [6]): 0/0 | Activity (μM) 20, p62/actin assay activity (p62; [7]): 0/0 | Activity (μM) 50, p62/actin assay activity (p62; [7]): 0/0

VCNACFHIWH [Compound 10]
Activity (μM) 10, LC3 assay activity (LC3; [3]): + | Activity (μM) 20, LC3 assay activity (LC3; [4]): ++ | Activity (μM) 50, LC3 assay activity (LC3; [4]): +++ | Activity (μM) 10, p62/actin assay activity (p62; [6]): 0 | Activity (μM) 20, p62/actin assay activity (p62; [7]): 0 | Activity (μM) 50, p62/actin assay activity (p62; [7]): 0

VCNACFHIWH [Compound 52]
Activity (μM) 50, LC3 assay activity (LC3; [1]): + | Activity (μM) 100, LC3 assay activity (LC3; [1]): + | Activity (μM) 50, p62/actin assay activity (p62; [2]): 0 | Activity (μM) 100, p62/actin assay activity (p62; [2]): 0

VCNACFHIWH [Compound 53]
Activity (μM) 50, LC3 assay activity (LC3; [1]): ++ | Activity (μM) 100, LC3 assay activity (LC3; [1]): ++ | Activity (μM) 50, p62/actin assay activity (p62; [2]): +++ | Activity (μM) 100, p62/actin assay activity (p62; [2]): +++

VCNACFHIWH [Compound 54]
Activity (μM) 10, LC3 assay activity (LC3; [1]): 0 | Activity (μM) 30, LC3 assay activity (LC3; [1]): 0 | Activity (μM) 50, LC3 assay activity (LC3; [1]): 0 | Activity (μM) 10, p62/actin assay activity (p62; [2]): + | Activity (μM) 30, p62/actin assay activity (p62; [2]): ++ | Activity (μM) 50, p62/actin assay activity (p62; [2]): ++

VCNACFHIWH [Compound 55]
Activity (μM) 10, LC3 assay activity (LC3; [1]): 0/0 | Activity (μM) 30, LC3 assay activity (LC3; [1]): 0 | Activity (μM) 50, LC3 assay activity (LC3; [1]): 0 | Activity (μM) 10, p62/actin assay activity (p62; [2]): 0/0 | Activity (μM) 30, p62/actin assay activity (p62; [2]): ++ | Activity (μM) 50, p62/actin assay activity (p62; [2]): +++

VCNACFHIWH [Compound 56]
Activity (μM) 10, LC3 assay activity (LC3; [1]): 0/0 | Activity (μM) 30, LC3 assay activity (LC3; [1]): 0 | Activity (μM) 50, LC3 assay activity (LC3; [1]): 0 | Activity (μM) 10, p62/actin assay activity (p62; [2]): 0/0 | Activity (μM) 30, p62/actin assay activity (p62; [2]): + | Activity (μM) 50, p62/actin assay activity (p62; [2]): +

VCNACFHIWH [Compound 57]
Activity (μM) 10, LC3 assay activity (LC3; [1]): 0/0 | Activity (μM) 30, LC3 assay activity (LC3; [1]): 0 | Activity (μM) 50, LC3 assay activity (LC3; [1]): 0 | Activity (μM) 10, p62/actin assay activity (p62; [2]): 0/0 | Activity (μM) 30, p62/actin assay activity (p62; [2]): + | Activity (μM) 50, p62/actin assay activity (p62; [2]): +

VCNACFHIWH [Compound 69]
Activity (μM) 30, LC3 assay activity (LC3; [1]): 0/0 | Activity (μM) 50, LC3 assay activity (LC3; [1]): +++ | Activity (μM) 10, starred cell, LC3 assay activity (LC3; second symbol): 0/0* | Activity (μM) 30, p62/actin assay activity (p62; [2]): 0/0 | Activity (μM) 50, p62/actin assay activity (p62; [2]): ++ | Activity (μM) 10, starred cell, p62/actin assay activity (p62; first symbol): 0/0*

VCNACFHIWH [Compound 70]
Activity (μM) 30, LC3 assay activity (LC3; [1]): 0/0 | Activity (μM) 50, LC3 assay activity (LC3; [1]): + | Activity (μM) 10, starred cell, LC3 assay activity (LC3; second symbol): 0/0* | Activity (μM) 30, p62/actin assay activity (p62; [2]): 0/0 | Activity (μM) 50, p62/actin assay activity (p62; [2]): 0 | Activity (μM) 10, starred cell, p62/actin assay activity (p62; first symbol): 0/0*

VCNACFHIWH [Compound 71]
Activity (μM) 30, LC3 assay activity (LC3; [1]): ++ | Activity (μM) 50, LC3 assay activity (LC3; [1]): +++ | Activity (μM) 10, starred cell, LC3 assay activity (LC3; second symbol): + | Activity (μM) 30, p62/actin assay activity (p62; [2]): 0 | Activity (μM) 50, p62/actin assay activity (p62; [2]): 0 | Activity (μM) 10, starred cell, p62/actin assay activity (p62; first symbol): 0

VCNACFHIWH [Compound 72]
Activity (μM) 30, LC3 assay activity (LC3; [1]): 0/0 | Activity (μM) 50, LC3 assay activity (LC3; [1]): ++ | Activity (μM) 10, starred cell, LC3 assay activity (LC3; second symbol): 0/0* | Activity (μM) 30, p62/actin assay activity (p62; [2]): 0/0 | Activity (μM) 50, p62/actin assay activity (p62; [2]): + | Activity (μM) 10, starred cell, p62/actin assay activity (p62; first symbol): 0/0*

VCNACFHIWH [Compound 73]
Activity (μM) 30, LC3 assay activity (LC3; [1]): + | Activity (μM) 50, LC3 assay activity (LC3; [1]): +++ | Activity (μM) 10, starred cell, LC3 assay activity (LC3; second symbol): 0/0* | Activity (μM) 30, p62/actin assay activity (p62; [2]): 0 | Activity (μM) 50, p62/actin assay activity (p62; [2]): + | Activity (μM) 10, starred cell, p62/actin assay activity (p62; first symbol): 0/0*

VCNACFHIWH [Compound 74]
Activity (μM) 30, LC3 assay activity (LC3; [1]): ++ | Activity (μM) 50, LC3 assay activity (LC3; [1]): +++/+++ | Activity (μM) 10, starred cell, LC3 assay activity (LC3; second symbol): + | Activity (μM) 30, p62/actin assay activity (p62; [2]): 0 | Activity (μM) 50, p62/actin assay activity (p62; [2]): +++/+++ | Activity (μM) 10, starred cell, p62/actin assay activity (p62; first symbol): 0

VCNATCHIRIWH (H-V[dC]NAT[dC]HIRIWH; linker 2-6 via MP (inferred); not fully specified (C-terminus); reading uncertain) [Compound 37]
Activity (μM) 50, LC3 assay activity (LC3; [1]): 0/0 | Activity (μM) 100, LC3 assay activity (LC3; [1]): 0/0 | Activity (μM) 50, p62/actin assay activity (p62; [2]): 0/0 | Activity (μM) 100, p62/actin assay activity (p62; [2]): 0/0

VCNATCHIWH [Compound 2]
Activity (μM) 10, LC3 assay activity (LC3; [3]): 0/0 | Activity (μM) 20, LC3 assay activity (LC3; [4]): 0/0 | Activity (μM) 30, LC3 assay activity (LC3; [1]): 0/0 | Activity (μM) 50, LC3 assay activity (LC3; [4]): 0/0 | Activity (μM) 50, LC3 assay activity (LC3; [1]): + | Activity (μM) 100, LC3 assay activity (LC3; [4]): 0/0 | Activity (μM) 10, starred cell, LC3 assay activity (LC3; second symbol): 0/0* | Activity (μM) 10, p62/actin assay activity (p62; [6]): 0/0 | Activity (μM) 20, p62/actin assay activity (p62; [7]): 0/0 | Activity (μM) 30, p62/actin assay activity (p62; [2]): 0/0 | Activity (μM) 50, p62/actin assay activity (p62; [7]): 0/0 | Activity (μM) 50, p62/actin assay activity (p62; [2]): 0 | Activity (μM) 100, p62/actin assay activity (p62; [7]): 0/0 | Activity (μM) 10, starred cell, p62/actin assay activity (p62; first symbol): 0/0*

VCNATCHIWH [Compound 18]
Activity (μM) 10, LC3 assay activity (LC3; [9]): 0/0 | Activity (μM) 30, LC3 assay activity (LC3; [9]): 0/0 | Activity (μM) 50, LC3 assay activity (LC3; [9]): 0/0 | Activity (μM) 100, LC3 assay activity (LC3; [9]): 0/0 | Activity (μM) 10, p62/actin assay activity (p62; [10]): 0/0 | Activity (μM) 30, p62/actin assay activity (p62; [10]): 0/0 | Activity (μM) 50, p62/actin assay activity (p62; [10]): 0/0 | Activity (μM) 100, p62/actin assay activity (p62; [10]): 0/0
